Measurements taken from patent US11767319B2, “Crystalline forms of a selective c-kit kinase inhibitor” (Third Harmonic Bio, Inc., priority 2020, dated 2023).

Legend:
Assay type in all cases: physicochemical
[1] = Slurry experiments in SGF; conditions: 37° C., 500 rpm
Method: About 200 mg of sodium chloride and about 100 mg Triton X-100 was weighted into a 100-mL volumetric flask. About 100 mL of purified water was added to the flask and the solution was sonicated until all solids were completely dissolved. 1 M HCl was added to adjust the pH to 1.8 and the solution was mixed well and the pH was checked with a pH meter.
Competitive slurry experiments were performed for Forms A, H^A, H^B, C and D in SGF. About 10 mg of each form was added into separate HPLC vials followed by addition of 1.0 mL SGF in order to form slurries. The slurries were heated to 37° C. and stirred at 500 rpm. After 2 h or 24 h, the samples were centrifuged and the solids were collected for XRPD testing.

[2] = Variable temperature XRPD of Form D; conditions: heating to 150° C. or cooling to 30° C. under N2 purge
Method: FIG. 2D depicts a variable temperature XRPD of Form D of compound 1. The variable temperature experiment was conducted to further investigate the weight loss observed in the TGA curve.

[3] = Competitive slurry experiments among anhydrates (IPA/IPAc); conditions: at RT and 50° C., IPA/IPAc slurries
Method: Competitive slurry experiments were performed in IPA/IPAc at RT/50° C. between anhydrates Form A of compound 1 and Form D of compound 1. Form A of compound 1 was added into each solvent to form a slurry at RT or 50° C. and was stirred for 2 h. The slurries were then filtered to obtain saturated solution. Around 10 mg each of Form A of compound 1 and Form D of compound 1 were added into each solution to form a mixed slurry at RT or 50° C. […] The formation of Form H^A of compound 1 is postulated to be caused by residual water in the solvents or due to ambient humidity (˜35% humidity during slurry experiments).

XRPD at 2 h ([1]; 2 h): transformed to Form C
XRPD at 24 h ([1]; 24 h): a mixture of Form C and an HCl salt form
form change in variable temperature XRPD [2]: no form change
SMILES: Cc1ccc(-c2noc([C@H]3C[C@@H]3F)n2)cc1NC(=O)c1cnc2ccccn12 [Form D, N-(5-(5-((1R,2S)-2-fluorocyclopropyl)-1,2,4-oxadiazol-3-yl)-2-methylphenyl)imidazo[1,2-a]pyridine-3-carboxamide]
relative thermodynamic stability [3]: thermodynamically more stable than Form A
